Assay results: patent US20260374766A1, “METHODS FOR TREATING CANCER” (Antares Therapeutics, Inc., priority 2022, published 2026)
Like-named read-outs stand apart in the source and are kept apart here.

What was measured:
[1] = test system: H1299 p53 R273H; assay: Cell Proliferation Assay (CellTiter-Glo, CTG), H1299 p53 R273H (NClH1299-inducible p53 R273H); type: cell-based; details: Homo sapiens, NCI-H1299, 120 h, 5 days
Experimental: (§1) Inducible p53 Y220C and R273H constructs (Tet-One inducible expression system; Takara) were stably expressed in NClH1299 cells by lentiviral transduction. NUGC3, A549, BxPC3, T3M4, HuH7, HCC2935, MFE296, NClH1299, NClH1299-inducible p53 Y220C, and NClH1299-inducible p53 R273H cell lines were used for cell proliferation assay. 250-500 cells were seeded in each well of 384 plate and then compounds were dispensed into each well using Echo or Tecan. After 5 days of incubation, equal volume of CellTiter-Glo reagent (G7570; Promega) was added into each well and the plate was incubated at room temperature for 10 minutes with shaking. The luminescent signal was measured by PheraStar microplate reader and IC50 was calculated.

[2] = molecular target: p53 Y220C (Homo sapiens, UniProt P04637, Y220C); assay: Luciferase Reporter Assay (Luc), p53 response element, NClH1299 cells with inducible p53 Y220C; type: cell-based; details: 6 hour; for AC50: read-out: Luc P53 Y220C AC50
Experimental: Luciferase Reporter Assay Protocol
The cells were then used for p53 reporter assay. 5,000 cells were seeded in each well of 384 plate and cultured in 0.5 ug/mL doxycycline (D3072; Sigma) containing medium for 24 hours before compound treatment. After 6 hour of compound treatment, equal volume of One-Glo reagent (E6110; Promega) was added to each well and the plate was incubated for 5 minutes with shaking at room temperature. The luciferase activity was immediately measured with PheraStar microplate reader.

[3] = test system: H1299 p53 Y220C; assay: Cell Proliferation Assay (CellTiter-Glo, CTG), H1299 p53 Y220C (NClH1299-inducible p53 Y220C); type: cell-based; details: Homo sapiens, NCI-H1299, 120 h, 5 days
Experimental: as §1

[4] = molecular target: T1, p53 Y220C mutant protein (amino acid residues 94-293) (Homo sapiens, UniProt P04637, Y220C); assay: Surface Plasmon Resonance (SPR) assay, Kd_kinetic; type: binding; details: SPR, p53 Y220C, read-out: SPR P53 Y220C KD kinetic
T1 construct: p53 Y220C mutant protein (amino acid residues 94-293)
T1 sequence (P04637 94-293, stated change not applied): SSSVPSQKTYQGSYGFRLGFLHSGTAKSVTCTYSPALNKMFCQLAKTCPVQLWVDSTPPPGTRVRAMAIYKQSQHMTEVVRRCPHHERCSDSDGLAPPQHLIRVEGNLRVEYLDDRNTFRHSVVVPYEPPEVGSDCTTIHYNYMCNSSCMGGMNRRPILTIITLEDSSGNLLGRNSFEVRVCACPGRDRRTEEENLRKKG
Experimental: Surface Plasmon Resonance (SPR) Assay Protocol
SPR experiments were performed on a Biacore 8K instrument. […] The running buffer contained 50 mM Tris, pH 7.5, 100 mM NaCl, 1 mM DTT, 0.01% Brij35, 0.05% Tween-20 and 1% DMSO. The assay temperature was maintained at 16 or 20 °C and data were fit into the 1:1 binding model using the Biacore Insight Evaluation software.

[5] = test system: NUGC3 p53 Y220C; assay: Cell Proliferation Assay (CellTiter-Glo, CTG), NUGC3 p53 Y220C; type: cell-based; details: Homo sapiens, NUGC-3, 120 h, 5 days
Experimental: as §1

[6] = NClH1299-inducible p53 R273H cells, CellTiter-Glo
[7] = AC50, luciferase reporter, NClH1299 inducible p53 Y220C
[8] = Emax, luciferase reporter, NClH1299 inducible p53 Y220C
[9] = NClH1299-inducible p53 Y220C cells, CellTiter-Glo
[10] = NClH1299-inducible p53 R273H cells
[11] = AC50, NClH1299 cells with inducible p53 Y220C
[12] = Emax, NClH1299 cells with inducible p53 Y220C, 10 uM tool compound as positive control
[13] = NClH1299-inducible p53 Y220C cells
[14] = luciferase reporter, NClH1299 inducible p53 Y220C, 10 uM tool compound as positive control
[15] = luciferase reporter, NClH1299 inducible p53 Y220C

Row | SMILES | IC50 [1, 6] | AC50 [2, 7] | Emax [2, 8] | IC50 [3, 9] | Kd [4] | IC50 ([5]; NUGC3 cells, CellTiter-Glo) | further results
1 | CNC(=O)c1ccc(NCC#Cc2cn3c(N[C@@H]4CCN(C)C[C@@H]4F)cccc3c2SC(F)F)c(OC)c1 [Example 440] | 8000 to 10000 nM | < 750 nM | > 90% | < 750 nM | < 10 nM | < 750 nM | 
2 | CNC(=O)c1ccc(NCC#Cc2nc3c(N[C@@H]4CCOC[C@@H]4F)cccn3c2SC(F)(F)F)c(OCCN(C)C)c1 [Example 226] | 5000 to 8000 nM | 750 to 1500 nM | 70 to 80% | 750 to 1500 nM | < 10 nM | 750 to 1500 nM | 
3 | CNC(=O)c1ccc(NCC#Cc2cc3c(N[C@@H]4CCNC[C@@H]4F)cccn3c2SC(F)(F)F)c(OC2COC2)c1 [Example 435] | ≥ 10000 nM | < 750 nM | > 90% | < 750 nM | < 10 nM | < 750 nM | 
4 | CNC(=O)c1ccc(NCC#Cc2cc3c(N[C@@H]4CCN(C)C[C@@H]4F)cccn3c2SC(F)(F)F)c(F)c1 [Example 502, 3-fluoro-4-{[3-(8-{[(3S,4R)-3-fluoro-1-methylpiperidin-4-yl]amino}-3-[(trifluoromethyl)sulfanyl]indolizin-2-yl)prop-2-yn-1-yl]amino}-N-methylbenzamide] |  |  |  |  | < 10 nM |  | IC50 [1, 10]: ≥ 10000 nM; AC50 [2, 11]: < 750 nM; Emax [2, 12]: > 90%; IC50 [3, 13]: < 750 nM; IC50 ([5]; NUGC3 cells): < 750 nM
5 | CN1CC[C@@H](Nc2cccn3c(SC(F)(F)F)c(C#CCNc4ccc(C(N)=O)cc4)nc23)[C@@H](F)C1 [Example 314] | ≥ 10000 nM | < 750 nM | > 90% | < 750 nM | < 10 nM | < 750 nM | 
6 | CNC(=O)c1ccc(OC)c(NCC#Cc2cc3c(N[C@@H]4CCN(C[C@@H](C)O)C[C@@H]4F)nccn3c2SC(F)(F)F)c1 [Example 401] | 8000 to 10000 nM | < 750 nM | > 90% | < 750 nM |  | < 750 nM | 
7 | CNC(=O)c1ccc(NCC#Cc2nn3c(N[C@@H]4CCN(C)C[C@@H]4F)cccc3c2SC(F)F)c(OC)c1 [Example 366] | ≥ 10000 nM |  | 70 to 80% | < 750 nM |  | < 750 nM | 
8 | CNC(=O)c1ccc(OC)c(NCC#Cc2cc3c(N[C@@H]4CCN(C)C[C@@H]4F)cccn3c2CC(F)(F)F)c1 [Example 509] |  |  |  |  | < 10 nM |  | AC50 [2, 11]: < 750 nM; IC50 [3, 13]: < 750 nM; IC50 ([5]; NUGC3 cells): < 750 nM
9 | CNC(=O)c1ccnc(NCC#Cc2nc3c(N[C@@H]4CCN(C)C[C@@H]4F)cccn3c2SC(F)(F)F)c1 [Example 150] |  |  |  |  |  |  | IC50 ([1]; CellTiter-Glo, H1299 p53 R273H): ≥ 10000 nM; Emax [2, 14]: < 70%; AC50 [2, 15]: > 3000 nM; IC50 ([3]; CellTiter-Glo, H1299 p53 Y220C): > 3000 nM; IC50 ([5]; CellTiter-Glo, NUGC3 p53 Y220C): > 3000 nM
10 | CNC(=O)c1ccc(NCC#Cc2nc3c(N[C@@H]4C[C@H]5COC[C@H](N5)[C@@H]4F)cccn3c2SC(F)(F)F)c(OC)c1 (relative stereo) [Example 251, rel-4-{[3-(8-{[(1R,5R,6S,7S)-6-fluoro-3-oxa-9-azabicyclo [3.3.1]nonan-7-yl]amino}-3-[(trifluoromethyl)sulfanyl]imidazo[1,2-a]pyridin-2-yl)prop-2-yn-1-yl]amino}-3-methoxy-N-methylbenzamide] | ≥ 10000 nM |  | 80 to 90% | 1500 to 3000 nM |  | 1500 to 3000 nM | 
11 | COc1ccc(C(=O)NC[C@H](O)CO)cc1NCC#Cc1cc2c(N[C@@H]3CCN(C)C[C@@H]3F)cccn2c1SC(F)(F)F [Example 425] | ≥ 10000 nM | < 750 nM | > 90% | < 750 nM |  | < 750 nM | 
12 | CNC(=O)c1cnc(OC)c(NCC#Cc2nc3c(N[C@@H]4CCN(C)C[C@@H]4F)cccn3c2SC(F)(F)F)n1 [Example 157] |  |  |  |  |  |  | IC50 ([1]; CellTiter-Glo, H1299 p53 R273H): ≥ 10000 nM; Emax [2, 14]: 80 to 90%; AC50 [2, 15]: < 750 nM; Kd ([4]; kinetic KD): < 10 nM
13 | CNC(=O)c1ccc(NCC#Cc2nc3c(N[C@H]4C[C@H]5COC[C@H](N5)[C@H]4F)cccn3c2SC(F)(F)F)c(OC)c1 [Example 282] | ≥ 10000 nM |  |  |  |  | < 750 nM | 
14 | COc1ccc(C(=O)N(C)C)cc1NCC#Cc1nc2c(N[C@@H]3CCN(C)C[C@@H]3F)cccn2c1SC(F)(F)F [Example 143] |  |  |  |  |  |  | IC50 ([1]; CellTiter-Glo, H1299 p53 R273H): 5000 to 8000 nM; Emax [2, 14]: > 90%; AC50 [2, 15]: < 750 nM; Kd ([4]; kinetic KD): < 10 nM
15 | CNC(=O)c1ccc(NCC#Cc2cc3c(N[C@@H]4CCN(C)C[C@@H]4F)cccn3c2CC(F)(F)F)c(OC)c1 [Example 510] |  |  |  |  | < 10 nM |  | AC50 [2, 11]: < 750 nM; IC50 [3, 13]: < 750 nM; IC50 ([5]; NUGC3 cells): < 750 nM
16 | CNC(=O)c1ccc(NCC#Cc2nc3c(N[C@H]4C[C@@H]5COC[C@@H](N5)[C@H]4F)cccn3c2SC(F)(F)F)c(OC)c1 [Example 279] | ≥ 10000 nM |  | 70 to 80% | > 3000 nM |  | > 3000 nM | 
17 | COc1cc(P(C)(C)=O)ncc1NCC#Cc1cc2c(N[C@@H]3CCN(C)C[C@@H]3F)cccn2c1SC(F)(F)F [Example 439, 2-(3-{[6-(dimethylphosphoryl)-4-methoxypyridin-3-yl]amino}prop-1-yn-1-yl)-N-[(3S,4R)-3-fluoro-1-methylpiperidin-4-yl]-3-[(trifluoromethyl)sulfanyl]indolizin-8-amine] | ≥ 10000 nM | < 750 nM | > 90% | < 750 nM |  | < 750 nM | 
18 | CNS(=O)(=O)c1ccc(NCC#Cc2cc3c(N[C@@H]4CCN(C)C[C@@H]4F)cccn3c2SC(F)(F)F)c(OC)c1 [Example 360] | 5000 to 8000 nM | > 3000 nM | < 70% | > 3000 nM |  | > 3000 nM | 
19 | COc1cc(S(N)(=O)=O)ccc1NCC#Cc1cc2c(N[C@@H]3CCN(C)C[C@@H]3F)cccn2c1SC(F)(F)F [Example 362] | 8000 to 10000 nM | > 3000 nM | 70 to 80% | > 3000 nM |  | > 3000 nM | 
20 | CN1CC[C@@H](Nc2cccn3c(SC(F)(F)F)c(C#CCNc4cc(C(=O)NCC(C)(C)O)ccc4OC4COC4)cc23)[C@@H](F)C1 [Example 459, 3-{[3-(8-{[(3S,4R)-3-fluoro-1-methylpiperidin-4-yl]amino}-3-[(trifluoromethyl)sulfanyl]indolizin-2-yl)prop-2-yn-1-yl]amino}-N-(2-hydroxy-2-methylpropyl)-4-(oxetan-3-yloxy)benzamide] |  |  |  |  |  |  | IC50 [1, 10]: ≥ 10000 nM; AC50 [2, 11]: < 750 nM; Emax [2, 12]: > 90%; IC50 [3, 13]: < 750 nM; IC50 ([5]; NUGC3 cells): < 750 nM
